Experimental data: PMC3131558, “Plitidepsin Has a Safe Cardiac Profile: A Comprehensive Analysis” (Marine Drugs, 2011)

Columns and labels:
[1] = tested on: adult patients with advanced solid tumors or hematological malignancies; assay: Cardiac adverse events (CAEs) in phase I/II clinical trials of single-agent plitidepsin; assay type: in vivo, human; conditions: for CAE group: Miscellaneous Cardiac Adverse Events / CAE group: Myocardial Injury / CAE group: Rhythm Abnormalities / CAE subgroup: Irregular Supraventricular Tachycardia / CAE subgroup: Other Myocardial Injury / CAE subgroup: Other Rhythm Abnormalities / CAE subgroup: Possible Ischemic Related / CAE subgroup: Regular Supraventricular Tachycardia / CAE: Acute myocardial infarction / CAE: Arrhythmia / CAE: Atrial fibrillation / CAE: Atrial flutter / CAE: Atrioventricular block / CAE: Cardiac amyloidosis / CAE: Cardiac failure / CAE: Cardiac troponin I increased / CAE: Cardiomegaly / CAE: Cardiomyopathy / CAE: Change in electrocardiogram / CAE: Chest pain / CAE: Ejection fraction decreased / CAE: Electrocardiogram QT prolonged / CAE: Electrocardiogram ST-T change / CAE: Heart rate irregular / CAE: Hypertension / CAE: Hypotension / CAE: Myocardial ischemia / CAE: Palpitations / CAE: Pericardial effusion / CAE: Sinus tachycardia / CAE: Supraventricular arrhythmia / CAE: Supraventricular tachycardia / CAE: Tachycardia / CAE: Ventricular hypokinesia / Total Adverse Events (cardiac): regardless of relationship
From the text: Clinical trials included in this cardiac safety analysis were 4 phase I and 14 phase II studies evaluating plitidepsin as single-agent chemotherapy in a total of 578 adult patients (see details in Table 1). All available information on CAEs was retrieved from Pharma Mar’s internal Pharmacovigilance and Clinical Trials databases. The reviewed sources of information were Case Report Forms (CRFs), serious adverse event (SAE) reports, follow-up reports and supplementary reports attached or requested. Median follow-up was 12.0 months (95% CI, 7.6–13.8) for phase I trials and 12.3 months for phase II trials (95% CI, 11.0–13.7). Cutoff for data analysis was 20 November 2008.
All adverse events (AEs) with preferred terms of the Medical Dictionary for Regulatory Activities (MedDRA) that could be potentially classified as cardiac were evaluated. Additionally, events included in other systems as well in those patients with any vascular risk associated (prior history or within the trial) were also reviewed. Laboratory data were also reviewed in those cases with grade 3/4 creatine phosphokinase increase and/or troponin ([…] or troponin I) elevations. Patients’ prior history and baseline information were searched for any associated vascular risk (diabetes, hypercholesterolemia, hypertension, smoking, prior myocardial infarction or angina, etc.). All events retrieved using the aforementioned criteria were reviewed to identify and exclude from analysis potential CAEs due to obvious cancer-related symptoms (e.g., sinusal tachycardia in anemic patients, chest pain obviously related to tumor involvement of the chest). […] The information obtained was tabulated and a descriptive analysis is reported here.

HERG = conditions: preclinical, in vitro; cited from earlier work
From the text: (§1) Plitidepsin, a cyclic depsipeptide of marine origin, is an investigational drug currently in clinical development as a single agent as well as in combination with other anticancer agents for the treatment of different solid tumors and hematological malignancies. […] CAE ...

Purkinje fibers = conditions: preclinical, in vitro; cited from earlier work
From the text: as §1

dog = conditions: preclinical; cited from earlier work
From the text: as §1

[2] = tested on: guinea pig Langendorff preparation; conditions: exploratory study; cited from earlier work
From the text: as §1

[3] = tested on: human malignant cell lines; conditions: in vitro and in vivo, at nanomolar concentration ranges; cited from earlier work
From the text: Aplidin® (plitidepsin) is a cyclic depsipeptide originally isolated from the Mediterranean tunicate Aplidium albicans and currently produced by chemical synthesis. Plitidepsin has been proven to be active against several human malignant cell lines both in vitro and in vivo at nanomolar concentration ranges.

plitidepsin
CAE group: Miscellaneous Cardiac Adverse Events ([1]; All studies (n = 578)): 6 (1.0%) Patients (%)
CAE group: Myocardial Injury ([1]; All studies (n = 578)): 17 (3.0%) Patients (%)
CAE group: Rhythm Abnormalities ([1]; All studies (n = 578)): 31 (5.4%) Patients (%)
CAE subgroup: Irregular Supraventricular Tachycardia ([1]; All studies (n = 578)): 15 (2.6%) Patients (%)
CAE subgroup: Other Myocardial Injury ([1]; All studies (n = 578)): 7 (1.2%) Patients (%)
CAE subgroup: Other Rhythm Abnormalities ([1]; All studies (n = 578)): 13 (2.2%) Patients (%)
CAE subgroup: Possible Ischemic Related ([1]; All studies (n = 578)): 10 (1.7%) Patients (%)
CAE subgroup: Regular Supraventricular Tachycardia ([1]; All studies (n = 578)): 6 (1.0%) Patients (%)
CAE: Acute myocardial infarction ([1]; All studies (n = 578)): 1 (0.2%) Patients (%)
CAE: Arrhythmia ([1]; All studies (n = 578)): 1 (0.2%) Patients (%)
CAE: Atrial fibrillation ([1]; All studies (n = 578)): 11 (1.9%) Patients (%)
CAE: Atrial flutter ([1]; All studies (n = 578)): 5 (0.9%) Patients (%)
CAE: Atrioventricular block ([1]; All studies (n = 578)): 1 (0.2%) Patients (%)
CAE: Cardiac amyloidosis ([1]; All studies (n = 578)): 1 (0.2%) Patients (%)
CAE: Cardiac failure ([1]; All studies (n = 578)): 3 (0.5%) Patients (%)
CAE: Cardiac troponin I increased ([1]; All studies (n = 578)): 1 (0.2%) Patients (%)
CAE: Cardiomegaly ([1]; All studies (n = 578)): 1 (0.2%) Patients (%)
CAE: Cardiomyopathy ([1]; All studies (n = 578)): 2 (0.3%) Patients (%)
CAE: Change in electrocardiogram ([1]; All studies (n = 578)): 1 (0.2%) Patients (%)
CAE: Chest pain ([1]; All studies (n = 578)): 4 (0.7%) Patients (%)
CAE: Ejection fraction decreased ([1]; All studies (n = 578)): 1 (0.2%) Patients (%)
CAE: Electrocardiogram QT prolonged ([1]; All studies (n = 578)): 5 (0.9%) Patients (%)
CAE: Electrocardiogram ST-T change ([1]; All studies (n = 578)): 1 (0.2%) Patients (%)
CAE: Heart rate irregular ([1]; All studies (n = 578)): 1 (0.2%) Patients (%)
CAE: Hypertension ([1]; All studies (n = 578)): 1 (0.2%) Patients (%)
CAE: Hypotension ([1]; All studies (n = 578)): 2 (0.3%) Patients (%)
CAE: Myocardial ischemia ([1]; All studies (n = 578)): 3 (0.5%) Patients (%)
CAE: Palpitations ([1]; All studies (n = 578)): 6 (1.0%) Patients (%)
CAE: Pericardial effusion ([1]; All studies (n = 578)): 3 (0.5%) Patients (%)
CAE: Sinus tachycardia ([1]; All studies (n = 578)): 1 (0.2%) Patients (%)
CAE: Supraventricular arrhythmia ([1]; All studies (n = 578)): 1 (0.2%) Patients (%)
CAE: Supraventricular tachycardia ([1]; All studies (n = 578)): 1 (0.2%) Patients (%)
CAE: Tachycardia ([1]; All studies (n = 578)): 3 (0.5%) Patients (%)
CAE: Ventricular hypokinesia ([1]; All studies (n = 578)): 1 (0.2%) Patients (%)
Total Adverse Events (cardiac) ([1]; All studies (n = 578)): 46 (8.0%) Patients (%)
CAE group: Miscellaneous Cardiac Adverse Events ([1]; Phase II studies (n = 364)): 3 (0.8%) Patients (%)
CAE group: Myocardial Injury ([1]; Phase II studies (n = 364)): 14 (3.8%) Patients (%)
CAE group: Rhythm Abnormalities ([1]; Phase II studies (n = 364)): 25 (6.9%) Patients (%)
CAE subgroup: Irregular Supraventricular Tachycardia ([1]; Phase II studies (n = 364)): 14 (3.8%) Patients (%)
CAE subgroup: Other Myocardial Injury ([1]; Phase II studies (n = 364)): 6 (1.6%) Patients (%)
CAE subgroup: Other Rhythm Abnormalities ([1]; Phase II studies (n = 364)): 13 (3.6%) Patients (%)
CAE subgroup: Possible Ischemic Related ([1]; Phase II studies (n = 364)): 8 (2.2%) Patients (%)
CAE subgroup: Regular Supraventricular Tachycardia ([1]; Phase II studies (n = 364)): 1 (0.3%) Patients (%)
CAE: Acute myocardial infarction ([1]; Phase II studies (n = 364)): 1 (0.3%) Patients (%)
CAE: Arrhythmia ([1]; Phase II studies (n = 364)): 1 (0.3%) Patients (%)
CAE: Atrial fibrillation ([1]; Phase II studies (n = 364)): 10 (2.7%) Patients (%)
CAE: Atrial flutter ([1]; Phase II studies (n = 364)): 5 (1.4%) Patients (%)
CAE: Atrioventricular block ([1]; Phase II studies (n = 364)): 1 (0.3%) Patients (%)
CAE: Cardiac amyloidosis ([1]; Phase II studies (n = 364)): 1 (0.3%) Patients (%)
CAE: Cardiac failure ([1]; Phase II studies (n = 364)): 2 (0.5%) Patients (%)
CAE: Cardiac troponin I increased ([1]; Phase II studies (n = 364)): 1 (0.3%) Patients (%)
CAE: Cardiomegaly ([1]; Phase II studies (n = 364)): 1 (0.3%) Patients (%)
CAE: Cardiomyopathy ([1]; Phase II studies (n = 364)): 2 (0.5%) Patients (%)
CAE: Change in electrocardiogram ([1]; Phase II studies (n = 364)): 1 (0.3%) Patients (%)
CAE: Chest pain ([1]; Phase II studies (n = 364)): 2 (0.5%) Patients (%)
CAE: Ejection fraction decreased ([1]; Phase II studies (n = 364)): 1 (0.3%) Patients (%)
CAE: Electrocardiogram QT prolonged ([1]; Phase II studies (n = 364)): 5 (1.4%) Patients (%)
CAE: Electrocardiogram ST-T change ([1]; Phase II studies (n = 364)): 1 (0.3%) Patients (%)
CAE: Heart rate irregular ([1]; Phase II studies (n = 364)): 1 (0.3%) Patients (%)
CAE: Hypertension ([1]; Phase II studies (n = 364)): 0 (0.0%) Patients (%)
CAE: Hypotension ([1]; Phase II studies (n = 364)): 2 (0.5%) Patients (%)
CAE: Myocardial ischemia ([1]; Phase II studies (n = 364)): 3 (0.8%) Patients (%)
CAE: Palpitations ([1]; Phase II studies (n = 364)): 6 (1.6%) Patients (%)
CAE: Pericardial effusion ([1]; Phase II studies (n = 364)): 1 (0.3%) Patients (%)
CAE: Sinus tachycardia ([1]; Phase II studies (n = 364)): 1 (0.3%) Patients (%)
CAE: Supraventricular arrhythmia ([1]; Phase II studies (n = 364)): 0 (0.0%) Patients (%)
CAE: Supraventricular tachycardia ([1]; Phase II studies (n = 364)): 0 (0.0%) Patients (%)
CAE: Tachycardia ([1]; Phase II studies (n = 364)): 0 (0.0%) Patients (%)
CAE: Ventricular hypokinesia ([1]; Phase II studies (n = 364)): 1 (0.3%) Patients (%)
Total Adverse Events (cardiac) ([1]; Phase II studies (n = 364)): 37 (10.2%) Patients (%)
Plitidepsin-related CAEs: chest pain ([1]; of 15 related CAEs): 2 n
Plitidepsin-related CAEs: palpitations ([1]; of 15 related CAEs): 4 n
Patients with a CAE who had a fatal outcome as a direct consequence ([1]; related, unrelated or unknown CAEs): None
Potentially life-threatening arrhythmias (e.g., ventricular arrhythmias) ([1]; within plitidepsin trials): did not occur
Cardiotoxic profile in HERG assay (HERG): did not show a cardiotoxic profile
Cardiotoxic profile in study using Purkinje fibers (Purkinje fibers): did not show a cardiotoxic profile
Cardiotoxic profile in in vivo study in the dog (dog): did not show a cardiotoxic profile
Cardiac effects of escalating doses in guinea pig Langendorff preparation [2]: did not show a cardiotoxic profile
Activity against several human malignant cell lines [3]: active
